Laboratory results: PMC9851200, “Multiparameter phenotypic screening for endogenous TFEB and TFE3 translocation identifies novel chemical series modulating lysosome function” (Autophagy, 2022)
Like-named read-outs stand apart in the source and are kept apart here.

Key:
Details in all cases: PKIS2 primary screening
endogenous TFEB = assay: TFEB nuclear translocation, immunocytochemistry high-content imaging; format: cell-based
SH-SY5Y cells [1] = assay: AK (adenylate kinase) release ToxiLight cytotoxicity assay; note: reference of the scale not given here
endogenous TFE3 = assay: TFE3 nuclear translocation, immunocytochemistry high-content imaging; format: cell-based
SH-SY5Y cells [2] = test system: SH-SY5Y cells; note: reference of the scale not given here
SH-SY5Y cells [3] = assay: Nuclear count from microscopy images (cellular growth and toxicity); note: reference of the scale not given here

| Compound | TFEB % (endogenous TFEB) | AK (SH-SY5Y cells [1]) | TFE3 % (endogenous TFE3) | DQ Intensity (SH-SY5Y cells [2]; DQ Red BSA intensity) | DQ Spot (SH-SY5Y cells [2]; DQ Red BSA spot count) | Nuclear Count (SH-SY5Y cells [3]) | DQ Intensity (SH-SY5Y cells [2]) | DQ Spot (SH-SY5Y cells [2]) |
| --- | --- | --- | --- | --- | --- | --- | --- | --- |
| Cl.c1ccc(Cn2cnc3cc(Nc4ncnc5ccccc45)ccc32)cc1 [UNC10225378A] | 2.97% | 86.98 | 16.85% | 110.75 | 119.25 | 84.68 | – | – |
| NS(=O)(=O)c1cccc(-c2ccc3nccc(-c4cccc(S(N)(=O)=O)c4)c3c2)c1 [UNC10225379A] | 4.73% | 131.37 | 17.04% | 88.37 | 88.03 | 79.09 | – | – |
| Fc1ccc(-c2ncn(CCCN3CCOCC3)c2-c2ccccn2)cc1 [UNC10225382A] | 3.28% | 83.54 | 18.86% | 121.86 | 115.12 | 93.57 | – | – |
| COc1cc2ncn(-c3cc(OCc4ccncc4Br)c(C(N)=O)s3)c2cc1OC [UNC10225386A] | 6.47% | 64.35 | 3.25% | – | – | 97.54 | 93.85 | 100.07 |
| Cc1ccc(NC(=O)Nc2ccc(Cl)cc2)cc1-c1ccc(C(=O)Nc2ccncc2)cc1 [UNC10225388A] | 7.90% | 83.48 | 28.63% | – | – | 82.28 | 98.78 | 97.95 |
| CCCCCc1nc2c(N)ncnc2n1CCCCC [UNC10225389A] | 4.57% | 96.98 | 10.63% | – | – | 110.88 | 103.02 | 109.08 |
| CCn1c(-c2nonc2N)nc2c(C#CC(C)(C)O)ncc(OCCCCN)c21.O=C(O)C(F)(F)F.O=C(O)C(F)(F)F [UNC10225393A] | 2.26% | 69.12 | 10.89% | – | – | 121.84 | 115.98 | 109.86 |
| Cc1ccc(NC(=O)Nc2ccccc2F)cc1-c1ccc(C(=O)Nc2ccncc2)cc1 [UNC10225398A] | 7.18% | 135.60 | 17.53% | – | – | 104.03 | 90.99 | 98.29 |
| NS(=O)(=O)c1cccc(-c2ccc3ncc(N4CCOCC4)nc3c2)c1 [UNC10225400A] | 4.14% | 95.42 | 6.51% | 83.02 | 88.90 | 118.72 | – | – |
| Cc1c(Cn2c(C)nn3c(=O)cc(N4CCO[C@H](C)C4)nc23)cccc1C(F)(F)F [UNC10225403A] | 3.43% | 91.29 | 10.58% | – | – | 94.79 | 146.49 | 116.83 |
| CN1C(=O)C(Nc2ccc(Cl)c(C(=O)O)c2)=C(c2ccc(Cl)cc2)C1=O [UNC10225406A] | 3.59% | 75.31 | 10.12% | 120.55 | 105.90 | 91.26 | – | – |
| CCn1c(-c2ccccc2)nc2cnccc21 [UNC10225407A] | 8.26% | 88.86 | 8.88% | – | – | 99.61 | 107.17 | 104.42 |
| Nc1ncnc2c1ncn2-c1cccc2ccccc12 [UNC10225410A] | 7.46% | 106.56 | 8.71% | – | – | 88.30 | 80.92 | 97.35 |
| COc1ccc(-n2cnc3c(N)ncnc32)cc1 [UNC10225413A] | 5.09% | 68.21 | 13.51% | – | – | 102.02 | 106.51 | 108.81 |
| Cc1cn2c(=O)cc(N3CCOCC3)nc2n1Cc1cccc(Cl)c1Cl [UNC10225415A] | 6.30% | 43.75 | 10.27% | – | – | 117.08 | 62.82 | 98.81 |
| CSc1nn2c(=O)cc(N3CCOCC3)nc2n1Cc1cccc(C(F)(F)F)c1C [UNC10225417A] | 3.46% | 90.24 | 6.63% | – | – | 112.74 | 90.90 | 96.76 |
| Fc1ccc(-c2nc[nH]c2-c2ccncc2)cc1 [UNC10225418A] | 7.46% | 94.96 | 16.61% | 103.88 | 114.99 | 56.56 | – | – |
| Cl.Cl.Cl.Fc1ccc(-c2ncn(C3CCNCC3)c2-c2ccnc(Nc3ccccc3)n2)cc1 [UNC10225420A] | 8.15% | 105.24 | 15.52% | – | – | 78.56 | 95.71 | 100.38 |
| Cl.Cl.Cl.Fc1ccc(-c2ncn(C3CCNCC3)c2-c2ccnc(Nc3ccccc3)n2)cc1 [UNC10225420B] | 2.15% | 83.09 | 11.83% | – | – | 69.94 | 154.30 | 110.72 |
| Cl.Fc1ccccc1COc1ccc(Nc2ncnc3ccc(-c4nnc(C(F)(F)F)o4)cc23)cc1Cl [UNC10225422A] | 3.54% | 104.09 | 5.47% | 100.75 | 98.62 | 121.67 | – | – |
| CSc1nccc(-c2c(-c3ccc(F)cc3)ncn2CCCN2CCOCC2)n1.Cl [UNC10225426A] | 11.69% | 81.99 | 5.71% | – | – | 113.07 | 91.90 | 91.96 |
| CS(=O)(=O)Nc1ccc(-c2ccnc3[nH]ccc23)cc1 [UNC10225427A] | 2.64% | 106.42 | 8.99% | 61.89 | 80.51 | 134.12 | – | – |
| Nc1nc(-c2nccs2)c(-c2ccnc3ccccc23)s1 [UNC10225429A] | 3.83% | 94.26 | 19.15% | 102.85 | 117.25 | 118.67 | – | – |
| COc1cc(Nc2nccc(-c3c(-c4cccc(NC(=O)c5c(F)cccc5F)c4)nn4ncccc34)n2)cc(OC)c1OC [UNC10225433A] | 23.04% | 102.19 | 17.61% | – | – | 35.61 | 122.13 | 59.34 |
| CSc1nn2c(=O)cc(N3CCOCC3)nc2n1Cc1cccc(Cl)c1Cl [UNC10225435A] | 4.09% | 85.33 | 19.82% | – | – | 99.93 | 59.30 | 119.93 |
| CSc1cccc2c(-c3ccncn3)c(-c3ccc(F)cc3)nn12 [UNC10225437A] | 6.79% | 100.64 | 10.83% | – | – | 89.95 | 120.45 | 125.69 |
| O=c1cc(N2CCOCC2)nc2n(Cc3cccc4ccccc34)ccn12 [UNC10225439A] | 8.17% | 77.38 | 9.76% | – | – | 128.21 | 73.77 | 88.56 |
